ChEMBL document CHEMBL3638544, “Phenalkylamine derivatives, pharmaceutical compositions containing them, and their use in therapy” (2015)

Molecular target: T1, Sodium- and chloride-dependent glycine transporter 1 (Homo sapiens, UniProt P48067)
T1 sequence (P48067 whole entry): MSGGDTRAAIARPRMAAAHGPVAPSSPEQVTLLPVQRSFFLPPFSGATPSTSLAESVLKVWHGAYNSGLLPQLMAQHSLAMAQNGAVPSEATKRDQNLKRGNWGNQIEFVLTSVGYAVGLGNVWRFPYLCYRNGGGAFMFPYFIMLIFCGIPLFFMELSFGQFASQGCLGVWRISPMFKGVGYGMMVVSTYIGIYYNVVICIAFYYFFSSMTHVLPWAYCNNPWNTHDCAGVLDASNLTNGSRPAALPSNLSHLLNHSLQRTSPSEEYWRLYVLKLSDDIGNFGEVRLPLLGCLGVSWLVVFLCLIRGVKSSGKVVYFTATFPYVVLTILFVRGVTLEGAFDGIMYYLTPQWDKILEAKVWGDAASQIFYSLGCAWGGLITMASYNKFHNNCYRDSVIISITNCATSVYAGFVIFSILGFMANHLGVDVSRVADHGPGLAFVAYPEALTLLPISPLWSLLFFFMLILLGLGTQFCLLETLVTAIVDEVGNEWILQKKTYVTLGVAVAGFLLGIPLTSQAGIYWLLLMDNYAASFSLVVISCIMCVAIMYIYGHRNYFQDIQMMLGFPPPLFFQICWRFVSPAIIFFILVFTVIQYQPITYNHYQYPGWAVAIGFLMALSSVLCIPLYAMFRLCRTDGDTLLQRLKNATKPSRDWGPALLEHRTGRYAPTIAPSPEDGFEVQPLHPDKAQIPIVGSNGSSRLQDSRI
Test: Radioligand Binding Assay: Radioligand binding to human GlyT1c transporter-expressing membranes was determined as described in Mezler et al., Molecular Pharmacology 74:1705-1715, 2008.

NCC(Cc1ccccc1)c1ccc2c(c1)CN(S(=O)(=O)CC1CC1)CC2 (stereo unspecified)
Ki: < 10 µM
